Tests used:
[1] = system: NASH model mice (STAM mouse); experiment: NASH model (STAM) mice, oral administration once a day for 28 days; liver tissue images, liver weight, serum and hepatic markers, NAS; type: in vivo; parameters: TNF-alpha, Score showing the degree of inflammation / IFN-gamma, Score showing the degree of inflammation: scale not given here; settings: for serum ferritin level: oral 28 days (FIG. 7); for TNF-alpha, Score showing the degree of inflammation: oral 28 days (FIG. 11); for IFN-gamma, Score showing the degree of inflammation: oral 28 days (FIG. 12); for hepatic fibrosis area ratio: oral 28 days (FIG. 13); for weight ratio of liver to body / serum ALT level / hepatic TG (hepatic triglyceride) / MCP-1 (monocyte chemotactic protein-1) / NAS (NAFLD activity score) / hepatic ballooning score / lobular inflammation score / steatosis score / NAS (NAFLD activity score) improvement, in words: oral 28 days; for weight ratio of liver to body: after administration (FIG. 5); for serum ALT level: after administration (FIG. 6); for hepatic TG (hepatic triglyceride): after administration (FIG. 9); for MCP-1 (monocyte chemotactic protein-1): after administration (FIG. 10); for NAS (NAFLD activity score): full score of 8 (FIG. 17); for hepatic ballooning score: score of 0 to 2 (FIG. 14); for lobular inflammation score: score of 0 to 3 (FIG. 15); for steatosis score: score of 0 to 3 (FIG. 16); for liver weight: oral once a day, 28 days, polaprezinc 45.2 mg/kg, sodium selenite 150 μg/kg, after administration (FIG. 4); for NAS (NAFLD activity score) improvement, in words: comparison between groups
Method: An internationally prized and recognized STAM (registered trademark) mouse was used for the research model of non-alcoholic fatty liver disease (NAFLD) and/or non-alcoholic steatohepatitis (NASH). A STAM (registered trademark) mouse is an animal model of non-alcoholic steatohepatitis prepared by administrating inflammation inducer of the pancreas (patent literature 2) which Stelic Institute & Co. developed and is publically informed as patentee, and many research reports using this animal model has already been made domestic and overseas.
The NASH model mice were assigned to four groups (eight mice per group) by body weight stratification random sampling method so that the average body weight is equal. The four groups are the zinc preparation (polaprezinc)+selenium preparation (sodium selenite) group, zinc preparation (polaprezinc) alone group, selenium preparation (sodium selenite) alone group, and control group. The route of administration was oral administration, and the period of administration was 28 days.
The number of administration was once a day. The dosage was 10 ml/kg body weight and was administrated using an oral zonde.
The dosages of each group are shown below.
Blood was collected from the heart under ether anesthesia at the end of administration. The obtained serum was divisionally injected into a tube. It was euthanized by exsanguination after blood sampling and the photograph of the extracted liver was taken. For all necropsied animals, treatment was made to divide the liver into four respective lobes (right/left medial lobe, left lateral lobe, right lobe, caudate lobe), wherein especially the left lateral lobe was treated for three parts taking two each of its six equally divided parts, and the tissue image was analyzed.
The evaluation for non-alcoholic fatty liver disease (NAFLD) and/or non-alcoholic steatohepatitis (NASH) improvement was evaluated by the following items.
NAS (NAFLD activity score) is used to evaluate non-alcoholic fatty liver disease (NAFLD). NAS is advocated by Nonalcoholic⋅Steato⋅hepatitis⋅Clinical⋅Research⋅Network (nonpatent literature 2). […] The activity of NAS is evaluated by putting the three of steatosis, lobular inflammation, and Ballooning degeneration into scores. It is shown in full score of 8 in total, score of 0 to 3 for steatosis and lobular inflammation, and score of 0 to 2 for hepatic Ballooning degeneration. Steatosis, lobular inflammation, hepatic Ballooning degeneration, and NAS (NAFLD activity score) was compared and examined for the four groups, the group of the combination drug of zinc preparation (polaprezinc) and selenium preparation (sodium selenite), the control group, the zinc preparation (polaprezinc) alone group, and the selenium preparation (sodium selenite) alone group.

hepatic fibrosis = settings: from patent literature 1, nonpatent literature 3 and 5; cited from earlier work

Structure (SMILES) | serum ferritin level [1] | TNF-alpha, Score showing the degree of inflammation [1] | IFN-gamma, Score showing the degree of inflammation [1] | hepatic fibrosis area ratio [1] [%] | weight ratio of liver to body [1] [%] | serum ALT level [1] [IU/L] | hepatic TG (hepatic triglyceride) [1] [mg/dL] | MCP-1 (monocyte chemotactic protein-1) [1] | NAS (NAFLD activity score) [1] | hepatic ballooning score [1] | lobular inflammation score [1] | steatosis score [1] | liver weight [1] | suppression of hepatic fibrosis (prior reports) (hepatic fibrosis) | F4/80 (macrophage) antigen expression level in stained liver tissue ([1]; oral 28 days (FIG. 2-1, 2-2)) | NAS (NAFLD activity score) improvement, in words [1] | NAS (NAFLD activity score) improvement, in words ([1]; listed as Zinc preparation (polaprezinc))
O=[Se](O)O [selenium preparation (sodium selenite), sodium selenite] | 5,251 ng/ml | 13.23 | 8.02 | 1.18 | 7.43 | 54.6 | 57.3 | 3.2 | 3.54 | 1.23 | 1.46 | 0.85 | 1,385.2 mg |  |  |  | 
NCCC(=O)[N-][C@@H](Cc1c[nH]cn1)C(=O)[O-].[Zn+2] [zinc preparation (polaprezinc), L-carnosine zinc salt] | 5,740 ng/ml | 12.80 | 7.95 | 1.16 | 7.49 | 58.8 | 64.2 | 3.3 | 3.62 | 1.38 | 1.38 | 0.85 | 1,389 mg | suppresses hepatic fibrosis | suppresses the expression level significantly compared with the control | significantly declined NAS (NAFLD activity score) compared with the control group | showed improvement compared to the control group

— patent US11058718B2, “Method for treating non-alcoholic steatohepatitis (NASH) with the combination of polaprezinc and sodium selenite” (Medico Consl Co., Ltd., priority 2019, dated 2021)
